{"source": "paper PMC8020795", "about": "(Proceedings of the National Academy of Sciences of the …, 2021)", "key": {"[1]": {"assay": "Non-GLP 14-d repeated dose toxicology", "assay_type": "in vivo"}, "JHH-7 cells": {"system": "JHH-7 cells", "assay": "Western blot of phospho-ERK and phospho-AKT after CXCL12 stimulation", "assay_type": "cell-based, human", "settings": "10 µM, CXCL12 stimulation", "description": "(§1) Western blotting was conducted by following standard procedures. HCA-1 or JHH-7 cells (10^5 cells per well) were seeded in 12-well plates (Costar, IL), incubated for 12 h and […]\n(§2) containing (100 ng/mL) serum-free medium. After 24 h, the cells were lysed in RIPA buffer on ice for 30 min, and samples were collected and loaded with 4× Laemmli Sample buffer (Bio-Rad, Hercules, CA). The samples were separated on a 10% SDS-PAGE gels and transferred to PVDF membranes. After blocking with skim milk for 1 h, the membranes were incubated at 4°C overnight with primary antibodies against p -AKT, AKT, p-ERK, ERK (Cell Signaling, Danvers, MA) or β-actin (Sigma-Aldrich, St. Louis, MO) before incubation with HRP-conjugated secondary antibodies (Antibodies Inc., Davis, CA) for 1 h. […]\n(§3) Total RNA was extracted from HCA-1 cells using the RNeasy Mini Kit (Qiagen, CA, USA). cDNAs were synthesized using the High-Capicity cDNA Reverse Transcription Kit […]\n(§4) Biosystems, CA, USA) on a QPCR System. The comparative threshold cycle method was used to calculate fold change in gene expression, which was normalized to β-actin as a […]"}, "HCA-1 cells [2]": {"system": "HCA-1 cells", "assay": "CXCL12-induced HCA-1 chemotaxis (invasion assay)", "assay_type": "cell-based, murine", "settings": "concentration up to 1 µM", "description": "[3-(2-Aminomethyl-oxazol-4-yl)-propyl]-[3-(tert-butoxycarbonyl-cyclohexyl-amino)- propyl]-carbamic acid tert-butyl ester (Linker 1). A mixture of L1-6 (10.35 g, 16.5 mmol) and 10% Pd/C (4.66 g) in iso-propanol (310 mL) was stirred under H2(g) at 50 °C for 15 h.\nThe resulting mixture was filtered, and the filtrate was concentrated to afford Linker 1 (7.23 g, […]\nWound healing and invasion assays\nCell migration ability was measured by wound healing assay. HCA-1 cells (5 × 10^5 cells per well) were seeded onto 12-well plates and incubated overnight. When the cell confluence exceeded 90%, scratch wounds were made by scraping a straight line in the middle of the cell layer using the tip of a 1000 µL pipette. After washing the cells with PBS, the cells were incubated in serum-free medium under different treatment conditions (control, 100 ng/mL CXCL12, and 10 µM BPRCX807 with 100 ng/mL CXCL12). Then, 3-4 fields (40×) of each group were randomly chosen and observed by a microscope (IX83, Olympus, Japan) at time points of 0 h, 24h, 48 h and 72 h. For the invasion assay, HCA-1 cells were suspended in RPMI 1640 containing 0.5% FBS and then preincubated with the indicated concentrations of compounds for 10 min at 37 °C. […] After 17.5 h of incubation at 37 °C, the cells in both chambers of the inserts were measured with a CellTiter-Glo Luminescent Cell Viability Assay (Promega, Wisconsin). […]"}, "HCA-1 cells [3]": {"system": "HCA-1 cells", "assay": "Western blot of phospho-ERK and phospho-AKT after CXCL12 stimulation", "assay_type": "cell-based, murine", "settings": "20 µM, CXCL12 stimulation", "description": "as §1, §2, §3, §4"}}}
{"smiles": "Cc1cc(NC2CCN(C(=O)CCNCC(=O)O)CC2)nc(NCc2nc(CCCNCCCNC3CCCCC3)co2)n1", "note": "[BPRCX807]", "values": [{"measurement": "Survival in repeated dose toxicology", "setting": "[1]; SD rats, 50 mg/kg/d, 14 d", "value": "all animals survived up to study termination"}, {"measurement": "Non-GLP 14-d repeated dose, overall finding", "setting": "[1]; rat, in vivo", "value": "Clean"}, {"measurement": "Hematological and biochemical data vs vehicle", "setting": "[1]; rat, in vivo, 50 mg/kg/day", "value": "no significant difference"}, {"measurement": "Major organs (heart, lung, kidney, liver) vs vehicle", "setting": "[1]; rat, in vivo, 50 mg/kg/day", "value": "normal in size, weight, and color"}, {"measurement": "Adrenal Glands/B.W.", "setting": "[1]; rat, in vivo, sc, 50 mg/kg", "value": "0.0002 ± 0.00003"}, {"measurement": "Albumin (ALB)", "setting": "[1]; rat, in vivo, sc, 50 mg/kg", "value": "4.0 ± 0.2", "unit": "g/dL"}, {"measurement": "Alkaline Phosphatase (ALP)", "setting": "[1]; rat, in vivo, sc, 50 mg/kg", "value": "901 ± 60", "unit": "U/L"}, {"measurement": "Basophil", "setting": "[1]; rat, in vivo, sc, 50 mg/kg", "value": "0.002 ± 0.004 103/µL"}, {"measurement": "Basophil %", "setting": "[1]; rat, in vivo, sc, 50 mg/kg", "value": "0.01 ± 0.02", "unit": "%"}, {"measurement": "Blood Urea Nitrogen (BUN)", "setting": "[1]; rat, in vivo, sc, 50 mg/kg", "value": "16.7 ± 2.1", "unit": "mg/dL"}, {"measurement": "Creatinine (CRE)", "setting": "[1]; rat, in vivo, sc, 50 mg/kg", "value": "0.22 ± 0.04", "unit": "mg/dL"}, {"measurement": "Eosinophil", "setting": "[1]; rat, in vivo, sc, 50 mg/kg", "value": "0.01 ± 0.01 103/µL"}, {"measurement": "Eosinophil %", "setting": "[1]; rat, in vivo, sc, 50 mg/kg", "value": "0.11 ± 0.05", "unit": "%"}, {"measurement": "Erythrocyte", "setting": "[1]; rat, in vivo, sc, 50 mg/kg", "value": "6.33 ± 0.45 106/µL"}, {"measurement": "Glutamate oxaloacetate transaminase (GOT)", "setting": "[1]; rat, in vivo, sc, 50 mg/kg", "value": "67 ± 7", "unit": "U/L"}, {"measurement": "Glutamate pyruvate transaminase (GPT)", "setting": "[1]; rat, in vivo, sc, 50 mg/kg", "value": "35 ± 5", "unit": "U/L"}, {"measurement": "Heart/B.W.", "setting": "[1]; rat, in vivo, sc, 50 mg/kg", "value": "0.0038 ± 0.0004"}, {"measurement": "Hematocrit", "setting": "[1]; rat, in vivo, sc, 50 mg/kg", "value": "41.4 ± 3.5"}, {"measurement": "Hemoglobin", "setting": "[1]; rat, in vivo, sc, 50 mg/kg", "value": "13.8 ± 0.9", "unit": "g/dL"}, {"measurement": "Kidneys/B.W.", "setting": "[1]; rat, in vivo, sc, 50 mg/kg", "value": "0.0095 ± 0.0011"}, {"measurement": "Lactate dehydrogenase (LDH)", "setting": "[1]; rat, in vivo, sc, 50 mg/kg", "value": "272 ± 132", "unit": "U/L"}, {"measurement": "Liver/B.W.", "setting": "[1]; rat, in vivo, sc, 50 mg/kg", "value": "0.0460 ± 0.0044"}, {"measurement": "Lung/B.W.", "setting": "[1]; rat, in vivo, sc, 50 mg/kg", "value": "0.0054 ± 0.0005"}, {"measurement": "Lymphocyte", "setting": "[1]; rat, in vivo, sc, 50 mg/kg", "value": "6.36 ± 3.70 103/µL"}, {"measurement": "Lymphocyte %", "setting": "[1]; rat, in vivo, sc, 50 mg/kg", "value": "58.95 ± 6.42", "unit": "%"}, {"measurement": "Mean corpuscle hemoglobin", "setting": "[1]; rat, in vivo, sc, 50 mg/kg", "value": "21.8 ± 1.0", "unit": "pg"}, {"measurement": "Mean corpuscle volume", "setting": "[1]; rat, in vivo, sc, 50 mg/kg", "value": "65.4 ± 2.7", "unit": "fL"}, {"measurement": "Mean platelet volume", "setting": "[1]; rat, in vivo, sc, 50 mg/kg", "value": "6.4 ± 0.1", "unit": "fL"}, {"measurement": "Monocyte", "setting": "[1]; rat, in vivo, sc, 50 mg/kg", "value": "0.63 ± 0.36 103/µL"}, {"measurement": "Monocyte %", "setting": "[1]; rat, in vivo, sc, 50 mg/kg", "value": "5.82 ± 1.11", "unit": "%"}, {"measurement": "Neutrophil", "setting": "[1]; rat, in vivo, sc, 50 mg/kg", "value": "3.75 ± 2.13 103/µL"}, {"measurement": "Neutrophil %", "setting": "[1]; rat, in vivo, sc, 50 mg/kg", "value": "35.11 ± 5.51", "unit": "%"}, {"measurement": "Platelet", "setting": "[1]; rat, in vivo, sc, 50 mg/kg", "value": "1327± 239 103/µL"}, {"measurement": "Spleen/B.W.", "setting": "[1]; rat, in vivo, sc, 50 mg/kg", "value": "0.0021 ± 0.0004"}, {"measurement": "Testes/B.W.", "setting": "[1]; rat, in vivo, sc, 50 mg/kg", "value": "0.0094 ± 0.0006"}, {"measurement": "Thymus/B.W.", "setting": "[1]; rat, in vivo, sc, 50 mg/kg", "value": "0.0021 ± 0.0006"}, {"measurement": "White blood cells", "setting": "[1]; rat, in vivo, sc, 50 mg/kg", "value": "10.75 ± 6.09 103/µL"}, {"measurement": "CXCR4/CXCL12-triggered ERK and Akt activation", "setting": "JHH-7 cells", "value": "suppress CXCR4/CXCL12-triggered ERK and Akt activation more significantly than its counterparts"}, {"measurement": "CXCL12-induced cell migration", "setting": "HCA-1 cells [2]", "value": "significant decrease"}, {"measurement": "CXCR4/CXCL12-triggered ERK and Akt activation", "setting": "HCA-1 cells [3]", "value": "suppress CXCR4/CXCL12-triggered ERK and Akt activation more significantly than its counterparts"}]}
